Laboratory results taken from PubChem BioAssay (NCI).
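These data come from cells grown in 96-well plates and exposed to compound for 48 hours at five concentrations. GI50 marks 50% less growth. TGI: total growth inhibition.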

Experiments:
Assay in all cases: inhibition of tumour cell growth, NCI panel, 48 h
MOLT-4 leukemia = system: MOLT-4 leukemia
HCT-15 colon = system: HCT-15 colon
HT29 colon = system: HT29 colon
SF-295 CNS = system: SF-295 CNS
A549 NSCLC = system: A549 NSCLC
SR leukemia = system: SR leukemia
RXF 393 renal = system: RXF 393 renal
TK-10 renal = system: TK-10 renal
HOP-92 NSCLC = system: HOP-92 NSCLC
OVCAR-5 ovarian = system: OVCAR-5 ovarian
SF-268 CNS = system: SF-268 CNS
HS 578T breast = system: HS 578T breast
UO-31 renal = system: UO-31 renal
NCI-H460 lung = system: NCI-H460 lung
CAKI-1 renal = system: CAKI-1 renal
NCI-H226 lung = system: NCI-H226 lung
CCRF-CEM leukemia = system: CCRF-CEM leukemia
LOX IMVI melanoma = system: LOX IMVI melanoma
PC-3 prostate = system: PC-3 prostate
HCC-2998 colon = system: HCC-2998 colon
HL-60(TB) leukemia = system: HL-60(TB) leukemia
K-562 leukemia = system: K-562 leukemia
ACHN renal = system: ACHN renal
OVCAR-3 ovarian = system: OVCAR-3 ovarian
MDA-MB-435 = system: MDA-MB-435
MCF7 breast = system: MCF7 breast
U251 CNS = system: U251 CNS
DU-145 prostate = system: DU-145 prostate
RPMI-8226 leukemia = system: RPMI-8226 leukemia

O=C(Nc1ccc(-n2ccc3c(NC(=O)c4ccccc4)nccc32)cc1)c1cccc(C(F)(F)F)c1
GI50 (MOLT-4 leukemia): 290 nM | TGI (MOLT-4 leukemia): > 25900 nM | GI50 (HCT-15 colon): 42.8 nM | TGI (HCT-15 colon): 6990 nM | GI50 (HT29 colon): 243 nM | TGI (HT29 colon): 4020 nM | GI50 (SF-295 CNS): 392 nM | TGI (SF-295 CNS): 7990 nM | GI50 (A549 NSCLC): 418 nM | TGI (A549 NSCLC): 9400 nM | GI50 (SR leukemia): 75.3 nM | TGI (SR leukemia): > 18000 nM | GI50 (RXF 393 renal): 1020 nM | TGI (RXF 393 renal): 5970 nM | GI50 (TK-10 renal): 1530 nM | TGI (TK-10 renal): 12600 nM | GI50 (HOP-92 NSCLC): 1960 nM | TGI (HOP-92 NSCLC): > 50000 nM | GI50 (OVCAR-5 ovarian): 3070 nM | TGI (OVCAR-5 ovarian): > 50000 nM | GI50 (SF-268 CNS): 473 nM | TGI (SF-268 CNS): 25600 nM | GI50 (HS 578T breast): 1420 nM | TGI (HS 578T breast): 13100 nM | GI50 (UO-31 renal): 1830 nM | TGI (UO-31 renal): 15900 nM | GI50 (NCI-H460 lung): 119 nM | TGI (NCI-H460 lung): 5380 nM | GI50 (CAKI-1 renal): 326 nM | TGI (CAKI-1 renal): 7920 nM | GI50 (NCI-H226 lung): 2560 nM | TGI (NCI-H226 lung): > 50000 nM | GI50 (CCRF-CEM leukemia): 313 nM | TGI (CCRF-CEM leukemia): 13200 nM | GI50 (LOX IMVI melanoma): 182 nM | TGI (LOX IMVI melanoma): 5400 nM | GI50 (PC-3 prostate): 1290 nM | TGI (PC-3 prostate): 27300 nM | GI50 (HCC-2998 colon): 1710 nM | TGI (HCC-2998 colon): 11600 nM | GI50 (HL-60(TB) leukemia): 685 nM | TGI (HL-60(TB) leukemia): 15300 nM | GI50 (K-562 leukemia): 231 nM | TGI (K-562 leukemia): > 23100 nM | GI50 (ACHN renal): 624 nM | TGI (ACHN renal): 14700 nM | GI50 (OVCAR-3 ovarian): 1000 nM | TGI (OVCAR-3 ovarian): 7890 nM | GI50 (MDA-MB-435): 657 nM | TGI (MDA-MB-435): 4980 nM | GI50 (MCF7 breast): 413 nM | TGI (MCF7 breast): 7940 nM | GI50 (U251 CNS): 158 nM | TGI (U251 CNS): 7090 nM | GI50 (DU-145 prostate): 1640 nM | TGI (DU-145 prostate): 9710 nM | GI50 (RPMI-8226 leukemia): 614 nM | TGI (RPMI-8226 leukemia): 14200 nM
